These results are taken from ChEMBL document CHEMBL1201862, “PubChem BioAssay data set” (2004).

Each structure is given as a SMILES string.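 96-well plates; 48 h exposure; 5 concentrations. Endpoints by linear interpolation between flanking doses. Not reached: highest tested concentration assigned. The concentration for 50% growth inhibition is given as GI50.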 Active and inactive are the calls of the source. No stated cut-off is given here; in the data, active = GI50 up to about 1.1 µM and inactive = higher.

Among the test systems are A498; BT-549; CCRF-CEM; COLO 205; HCT-116; HCT-15; HOP-62; HOP-92; IGROV-1; LOX IMVI; MDA-MB-435; Malme-3M; NCI-H23; OVCAR-4; OVCAR-5; PC-3; SF-295; SK-MEL-2; SW-620; UACC-257.
What all share (assay): growth of human tumour cells (NCI), 48 h

`OC1(c2ccc(Cl)cc2)c2ccccc2C2=Nc3ccccc3CN21` (stereo not given): the GI50 in the test on A498 was 27.6 µM (inactive); with BT-549, > 100 µM (inactive); in the test with CCRF-CEM, > 65.9 µM (inactive); in the test on COLO 205, > 69.2 µM (inactive); with HCT-116, 6.9 µM (inactive); in the test on HCT-15, 30.8 µM. Moreover, the GI50 in the test with HOP-62 is 12.9 µM (inactive); in the test on HOP-92, > 60.3 µM (inactive); in the test with IGROV-1, 39.2 µM (inactive); with LOX IMVI, 25.6 µM (inactive); in the test on MDA-MB-435, 79.3 µM (inactive); with Malme-3M it was 30.5 µM (inactive). Also, the GI50 in the test on NCI-H23 was > 44.9 µM (inactive); with OVCAR-4, 20.6 µM (inactive); in the test on OVCAR-5, > 75.2 µM (inactive); in the test with PC-3, 45.8 µM (inactive); in the test with SF-295, 20.4 µM (inactive); in the test with SK-MEL-2 it was > 51.2 µM (inactive). In addition, the GI50 is 26.9 µM (inactive) with SW-620 and > 100 µM (inactive) with UACC-257.

For the molecule `Cc1cc(O)c2cc3c(O)c(O)ccc3cc2c1`, the GI50 is 3.12 µM (inactive) in the test with A498; 0.726 µM (active) in the test with BT-549; 1.27 µM (inactive) in the test on CCRF-CEM; 0.351 µM (active) in the test with COLO 205; 0.494 µM (active) in the test with HCT-116; 1.2 µM in the test with HCT-15. In addition, the GI50 in the test on HOP-62 was 1.29 µM (inactive); in the test on HOP-92 it was 2.61 µM (inactive); in the test on IGROV-1, 1.51 µM (inactive); with LOX IMVI, 1.35 µM (inactive); in the test on MDA-MB-435 it was 3.63 µM (inactive); in the test on Malme-3M, 1.4 µM (inactive). The GI50 with NCI-H23 is 1.24 µM (inactive); with OVCAR-4, 0.536 µM (active); in the test on OVCAR-5 it was 3.17 µM (inactive); in the test on PC-3 it was 0.302 µM (active); with SF-295, 0.619 µM (active); with SK-MEL-2 it was 0.895 µM (active). For the same molecule, the values for the GI50 in the test on SW-620 and in the test on UACC-257 were 0.53 µM (active) and 3.2 µM (inactive), respectively.

Consider `COC(=O)c1c(CC(Cc2ccc3c(c2)CCCC3)C(=O)OC)ccc2c1CCCC2` (stereo not given), for which the GI50 in the test on A498 is > 100 µM (inactive); in the test on BT-549 it was > 100 µM (inactive); in the test on CCRF-CEM, 35.4 µM (inactive); in the test on COLO 205, 19.9 µM (inactive); in the test on HCT-116, 72.8 µM (inactive); in the test on HCT-15 it was 46.2 µM. The GI50 with HOP-62 is > 100 µM (inactive); with HOP-92, 23 µM (inactive); in the test with IGROV-1, > 100 µM (inactive); in the test with LOX IMVI, 43 µM (inactive); in the test with MDA-MB-435 it was 42.4 µM (inactive); in the test with Malme-3M it was 38 µM (inactive). Moreover, the GI50 in the test on NCI-H23 was 69.5 µM (inactive); in the test with OVCAR-4, 5.68 µM (inactive); in the test on OVCAR-5, > 100 µM (inactive); in the test on PC-3, 38.7 µM (inactive); with SF-295, > 100 µM (inactive); in the test with SK-MEL-2, > 100 µM (inactive). Also, the GI50 in the test on SW-620 is > 100 µM (inactive); in the test on UACC-257, 24 µM (inactive).

For the molecule `c1ccc(/C(=N/Nc2nc3ccccc3s2)C2CCCCC2)nc1`, the GI50 with A498 is 16.6 µM (inactive); in the test with BT-549, 18.6 µM (inactive); in the test on CCRF-CEM, 1.98 µM (inactive); in the test with COLO 205, 1.57 µM (inactive); in the test with HCT-116, 0.296 µM (active); in the test on HCT-15 it was 2.77 µM. Besides, the GI50 in the test on HOP-62 was 9.46 µM (inactive); in the test on HOP-92 it was 7.48 µM (inactive); in the test on IGROV-1, 4.43 µM (inactive); with LOX IMVI it was 13.6 µM (inactive); in the test with MDA-MB-435, 14.8 µM (inactive); in the test with Malme-3M it was 4.13 µM (inactive). The GI50 in the test on NCI-H23 is 6.4 µM (inactive); in the test with OVCAR-4, 9.79 µM (inactive); in the test with OVCAR-5, 3.26 µM (inactive); in the test on PC-3, 6.11 µM (inactive); with SF-295 it was 15.8 µM (inactive); with SK-MEL-2, 15.7 µM (inactive). The GI50 in the test with SW-620 is 5.21 µM (inactive); with UACC-257, 4.32 µM (inactive).

As to `CC(C)(C)N1CC1CNC(=O)C(=O)NCC1CN1C(C)(C)C` (stereo not given), the GI50 in the test with A498 is 2.68 µM (inactive); in the test on BT-549 it was 29.9 µM (inactive); in the test with CCRF-CEM, 0.665 µM (active); with COLO 205, 3.79 µM (inactive); in the test on HCT-116, 3.97 µM (inactive); in the test with HCT-15 it was 3.74 µM. The GI50 with HOP-62 was 1.31 µM (inactive); in the test on HOP-92 it was 9.51 µM (inactive); in the test with IGROV-1, 5.83 µM (inactive); in the test with LOX IMVI it was 8.24 µM (inactive); in the test with MDA-MB-435, 38.8 µM (inactive); in the test on Malme-3M, 3.4 µM (inactive). Further, the GI50 in the test on NCI-H23 was 2.74 µM (inactive); with OVCAR-4, 28.5 µM (inactive); with OVCAR-5 it was 2.62 µM (inactive); in the test on PC-3, 14.9 µM (inactive); with SF-295, 3.33 µM (inactive); in the test on SK-MEL-2, 5.33 µM (inactive). Besides, the values for the GI50 with SW-620 and in the test on UACC-257 were 3.08 µM (inactive) and 5.05 µM (inactive), respectively.

For the molecule `Oc1cc(-c2ccccc2)cn2c1nc1ccccc12`, the GI50 was 11 µM (inactive) in the test on A498; 4.55 µM (inactive) in the test with BT-549; 3.4 µM (inactive) in the test with CCRF-CEM; 21.3 µM (inactive) in the test on COLO 205; 0.767 µM (active) in the test with HCT-116; 0.643 µM with HCT-15. Further, the GI50 in the test on HOP-62 was 2.4 µM (inactive); with HOP-92, > 25.5 µM (inactive); with IGROV-1, 1.43 µM (inactive); with LOX IMVI, 1.12 µM (active); in the test on MDA-MB-435, 0.189 µM (active); in the test on Malme-3M it was 1.41 µM (inactive). The GI50 with NCI-H23 is 6.37 µM (inactive); in the test with OVCAR-4, 4.23 µM (inactive); in the test on OVCAR-5 it was > 100 µM (inactive); with PC-3, 3.85 µM (inactive); in the test on SF-295, 6 µM (inactive); in the test on SK-MEL-2, 2.11 µM (inactive). Besides, the GI50 in the test on SW-620 is 0.544 µM (active); in the test on UACC-257, > 63.5 µM (inactive).

As for `CC1(O)C(=O)OC2CC([C@]3(O)CCC4[C@@H]5C[C@H]6O[C@]67[C@@H](O)C=CC(=O)[C@]7(C)C5CC[C@@]43C)C1(C)C2` (stereo not given in full), the GI50 in the test on A498 was 31.3 µM (inactive); in the test on BT-549, 6.68 µM (inactive); in the test with CCRF-CEM it was 2.03 µM (inactive); with COLO 205 it was 6.93 µM (inactive); with HCT-116, 10.9 µM (inactive); in the test with HCT-15 it was 17.9 µM. Further, the GI50 in the test with HOP-62 is 52.7 µM (inactive); with HOP-92 it was 3.44 µM (inactive); in the test with IGROV-1 it was 23.1 µM (inactive); in the test with LOX IMVI it was 4.54 µM (inactive); in the test on MDA-MB-435, 15.7 µM (inactive); with Malme-3M, 3.76 µM (inactive). Also, the GI50 was 7.13 µM (inactive) with NCI-H23; 12.1 µM (inactive) in the test with OVCAR-4; 23.8 µM (inactive) in the test with OVCAR-5; 20.1 µM (inactive) in the test with PC-3; 34.6 µM (inactive) in the test on SF-295; 13.8 µM (inactive) in the test with SK-MEL-2. Moreover, the GI50 in the test on SW-620 is 3.07 µM (inactive); in the test on UACC-257, 11.5 µM (inactive).
